The values that follow come from ChEMBL document CHEMBL3774331, “Inhibition of tau aggregation using a naturally-occurring cyclic peptide scaffold” (Eur J Med Chem, 2016).

The nature of this assay: Inhibition of TAU derived synthetic hexapeptide AcPHF6 fibril formation at compound:AcPHF6 ratio of 1:1 to 1:64 incubated for 60 mins by thioflavin S fluorescence assay.

Active and inactive are the calls of the source. The rule behind the calls is not given here. Where a SMILES comes first, the peptide text is derived from it. Bridges are numbered along the chain shown (N, C = ends).

In the case of `CC(C)C[C@H](NC(=O)CN)C(=O)N1CCC[C@H]1C(=O)N[C@H](C(=O)N[C@@H]1CSSC[C@H]2NC(=O)CNC(=O)[C@@H]3CCCN3C(=O)[C@H]([C@@H](C)O)NC(=O)[C@@H](CC(N)=O)NC(=O)[C@H]3CSSC[C@H](C(=O)N[C@@H](C(=O)N[C@H](CCCNC(=N)N)C(=O)N[C@@H](CC(N)=O)C(=O)O)[C@@H](C)O)NC(=O)[C@H](C(C)C)NC(=O)[C@H]4CCCN4C(=O)[C@@H](Cc4c[nH]c5ccccc45)NC(=O)[C@H](CO)NC(=O)[C@@H](CSSC[C@@H](NC(=O)[C@@H]([C@@H](C)O)NC(=O)[C@@H](CCC(=O)O)NC(=O)CNC1=O)C(=O)N[C@@H](C(C)C)C(=O)NCC(=O)NCC(=O)N[C@@H]([C@@H](C)O)C(=O)N3)NC(=O)[C@@H]([C@H](C)O)NC2=O)C(C)C`, the inhibition result is “Active”.

On to `CC[C@H](C)[C@@H]1NC(=O)[C@H](CCC(N)=O)NC(=O)[C@H](C(C)C)NC(=O)CNC(=O)[C@H]2CCCN2C(=O)[C@H](C(C)C)NC(=O)[C@H](CCCCN)NC(=O)[C@H]([C@@H](C)CC)NC(=O)[C@@H]2CSSC[C@H](NC1=O)C(=O)N[C@@H](Cc1ccc(O)cc1)C(=O)N[C@@H](CCCCN)C(=O)N[C@@H](CO)C(=O)N[C@@H]([C@@H](C)CC)C(=O)N1CCC[C@H]1C(=O)N1CCC[C@H]1C(=O)NCC(=O)N2`, for which the inhibition result was “Active”.

With `CC[C@H](C)[C@@H]1NC(=O)[C@@H]2CSSC[C@H](NC(=O)[C@H]([C@@H](C)CC)NC(=O)[C@H](CCC(N)=O)NC(=O)[C@@H]3CCCN3C(=O)[C@@H]3CCCN3C(=O)[C@H](C)NC1=O)C(=O)N[C@@H](Cc1ccc(O)cc1)C(=O)N[C@@H](CCCCN)C(=O)N[C@@H](CO)C(=O)N[C@@H]([C@@H](C)CC)C(=O)N1CCC[C@H]1C(=O)N1CCC[C@H]1C(=O)NCC(=O)N2` (cyclo(APPQICYKSIPPGCI); disulfide 6-14), the inhibition entry is “Active”.

Consider `CC[C@H](C)[C@@H]1NC(=O)[C@H](CCC(N)=O)NC(=O)[C@H](C(C)C)NC(=O)CNC(=O)[C@H]2CCCN2C(=O)[C@H](C(C)C)NC(=O)[C@H](C)N(C)C(=O)[C@H]([C@@H](C)CC)NC(=O)[C@H](C)NC(=O)[C@H]([C@@H](C)CC)NC(=O)[C@@H]2CCCN2C(=O)[C@@H]2CCCN2C(=O)[C@H]([C@@H](C)CC)NC(=O)[C@H](CO)NC(=O)[C@H](CCCCN)NC(=O)[C@H](Cc2ccc(O)cc2)NC(=O)[C@H](C(C)C)NC1=O`, for which the inhibition entry was “Active”.

As to `CC[C@H](C)[C@@H]1NC(=O)[C@H](CCC(=O)O)NC(=O)[C@@H]2CCCN2C(=O)[C@H](Cc2cnc[nH]2)NC(=O)[C@H](CC(=O)O)NC(=O)[C@H](Cc2ccc(O)cc2)NC(=O)[C@H](CC(N)=O)NC(=O)[C@H]2CSSC[C@H](NC(=O)CN)C(=O)N[C@@H](CSSC[C@@H](C(=O)NCC(=O)NCC(=O)N[C@@H](C)C(=O)NCC(=O)NCC(=O)O)NC1=O)C(=O)N[C@H](CO)C(=O)N[C@@H](CC(=O)O)C(=O)N1CCC[C@H]1C(=O)N[C@H](CCCNC(=N)N)C(=O)N2`, the inhibition entry is “inactive”.

In the case of `CC[C@H](C)[C@@H]1NC(=O)[C@H](CCC(N)=O)NC(=O)[C@H](C(C)C)NC(=O)CNC(=O)[C@H]2CCCN2C(=O)[C@H](C(C)C)NC(=O)[C@H](CCC(N)=O)NC(=O)[C@H]([C@@H](C)CC)NC(=O)[C@@H]2CSSC[C@H](NC1=O)C(=O)N[C@@H](Cc1ccc(O)cc1)C(=O)N[C@@H](CCCCN)C(=O)N[C@@H](CO)C(=O)N[C@@H]([C@@H](C)CC)C(=O)N1CCC[C@H]1C(=O)N1CCC[C@H]1C(=O)N[C@@H]([C@@H](C)CC)C(=O)N2`, the inhibition result was “Active”.

In the case of `CC[C@@H](C)[C@H]1NC(=O)[C@@H]2CCCN2C(=O)[C@@H]2CCCN2C(=O)[C@H]([C@@H](C)CC)NC(=O)[C@H](CO)NC(=O)[C@H](CC(N)=O)NC(=O)[C@H](CCC(=O)O)NC(=O)[C@@H]2CSSC[C@H](NC1=O)C(=O)N[C@@H](CCC(N)=O)C(=O)N[C@H](CCCCN)C(=O)N[C@H](CC(C)C)C(=O)N1CCC[C@H]1C(=O)N[C@H](CC(=O)O)C(=O)NCC(=O)N[C@H](CC(C)C)C(=O)N[C@@H](Cc1ccc(O)cc1)C(=O)N[C@H](CCC(N)=O)C(=O)N2`, the inhibition entry is “Active”.

Regarding `CC[C@H](C)[C@@H]1NC(=O)[C@@H]2CCCN2C(=O)[C@@H]2CCCN2C(=O)[C@H]([C@@H](C)CC)NC(=O)[C@H](CO)NC(=O)[C@H](Cc2ccccc2)NC(=O)[C@H](CC(N)=O)NC(=O)[C@@H]2CSSC[C@H](NC1=O)C(=O)N[C@@H](CCC(N)=O)C(=O)N[C@@H](CCCCN)C(=O)N[C@@H](CO)C(=O)N1CCC[C@H]1C(=O)N[C@@H](CC(=O)O)C(=O)NCC(=O)N[C@@H](CO)C(=O)N[C@@H](CC(N)=O)C(=O)N[C@@H](CCC(N)=O)C(=O)N2` (cyclo(CNFSIPPICQKSPDGSNQ); disulfide 1-9), the inhibition entry was “Active”.

Consider `CC[C@H](C)[C@@H]1NC(=O)[C@H](CCC(N)=O)NC(=O)[C@H](C(C)C)NC(=O)CNC(=O)[C@H]2CCCN2C(=O)[C@H](C(C)C)NC(=O)[C@H](C)NC(=O)[C@H](Cc2ccccc2)NC(=O)[C@@H]2CSSC[C@H](NC1=O)C(=O)N[C@@H](Cc1ccc(O)cc1)C(=O)N[C@@H](CCCCN)C(=O)N[C@@H](CO)C(=O)N[C@@H]([C@@H](C)CC)C(=O)N1CCC[C@H]1C(=O)N1CCC[C@H]1C(=O)N[C@@H]([C@@H](C)CC)C(=O)N2`, for which the inhibition result was “Active”.

`CC[C@H](C)[C@@H]1NC(=O)[C@@H]2CCCN2C(=O)[C@@H]2CCCN2C(=O)[C@H]([C@@H](C)CC)NC(=O)[C@H](CO)NC(=O)[C@H](CCCCN)NC(=O)[C@H]([C@@H](C)O)NC(=O)[C@H](C)NC(=O)[C@H](CCCNC(=N)N)NC(=O)CNC(=O)[C@H](CC(=O)O)NC(=O)[C@@H]2CCCN2C(=O)[C@H](Cc2ccccc2)NC(=O)[C@H](C)NC1=O` (cyclo(AFPDGRATKSIPPI)): the inhibition entry was “Active”.

As for `CC[C@@H](C)[C@@H]1NC(=O)[C@@H]2CSSC[C@H](NC(=O)[C@@H]([C@H](C)CC)NC(=O)CNC(=O)[C@H]3CCCN3C1=O)C(=O)N[C@H](Cc1ccc(O)cc1)C(=O)N[C@H](CCCCN)C(=O)N[C@H](CO)C(=O)N[C@H]([C@H](C)CC)C(=O)N1CCC[C@H]1C(=O)N1CCC[C@H]1C(=O)NCC(=O)N2`, the inhibition result is “Active”.

Turning to `CC[C@H](C)[C@@H]1NC(=O)[C@@H]2CCCN2C(=O)[C@@H]2CCCN2C(=O)[C@H]([C@@H](C)CC)NC(=O)[C@H](CO)NC(=O)[C@H](C)NC(=O)[C@H]([C@@H](C)O)NC(=O)[C@@H]2CSSC[C@H](NC1=O)C(=O)N[C@@H](Cc1ccccc1)C(=O)N1CCC[C@H]1C(=O)N[C@@H](CC(=O)O)C(=O)NCC(=O)N[C@@H](CCCNC(=N)N)C(=O)N2` (cyclo(ASIPPICFPDGRCT); disulfide 7-13), the inhibition result is “Active”.

With `CC[C@H](C)[C@@H]1NC(=O)[C@H](CCC(N)=O)NC(=O)[C@H](C(C)C)NC(=O)CNC(=O)[C@H](CC(=O)O)NC(=O)[C@@H]2CCCN2C(=O)[C@H](C(C)C)NC(=O)[C@H](CCCCN)NC(=O)[C@H]([C@@H](C)CC)NC(=O)[C@@H]2CSSC[C@H](NC1=O)C(=O)N[C@@H](Cc1ccc(O)cc1)C(=O)N[C@@H](CCCCN)C(=O)N[C@@H](CO)C(=O)N[C@@H]([C@@H](C)CC)C(=O)N1CCC[C@H]1C(=O)N1CCC[C@H]1C(=O)N[C@@H]([C@@H](C)CC)C(=O)N2` (cyclo(CIKVPDGVQICYKSIPPI); disulfide 1-11), the inhibition entry is “Active”.
